The values below come from US8940774B2, “Tris-Quaternary Ammonium Salts and Methods for Modulating Neuronal Nicotinic Acetylcholine Receptors” (University of Kentucky Research Foundation, priority 2005, dated 2015).

For this test, the target named is T1, α3β4 nicotinic receptor subtype expressed in Xenopus oocytes (Rattus norvegicus, UniProt P04757+P12392).
T1 construct: expressed in transfected cells; host or cells: Xenopus laevis oocytes injected with subunit cRNAs
The test is described as follows: Inhibition of ACh evoked current through nicotinic receptors expressed in Xenopus oocytes (α3β4). The test is classed as cell-based. The conditions noted are these: co-application with acetylcholine; FIG. 2. On the procedure: Rat nicotinic receptor cDNAs clones were linearized and purified, and RNA transcripts were prepared in vitro using the appropriate mMessage mMachine kit. Mature (>9 cm) female Xenopus laevis African toads (Nasco, Ft. Atkinson, Wis.), housed in the Division of Lab Animal Resources at the University of Florida were used as a source of oocytes. Prior to surgery, frogs were anesthetized by placing the animal in a 1.5 g/L solution of MS222 for 30 minutes. Oocytes were removed from an incision made in the abdomen. […]
Each oocyte received two initial control applications of ACh, then a nicotine or analog application, and then a follow-up control application of ACh. […] Responses to each nicotine or analog application were calculated relative to the preceding ACh control responses in order to normalize the data, compensating for the varying levels of channel expression among the oocytes. […] Responses for α7 receptors were calculated as net charge (Papke et al., 2002). For subtypes other than α7, responses were calculated from the peak current amplitudes. Means and standard errors (SEM) were calculated from the normalized responses of at least four oocytes for each drug concentration. […]
For concentration-response relations, data derived from net-charge analyses were plotted using Kaleidagraph 3.0.2 (Abelbeck Software; Reading, Pa.) and curves were generated from the Hill equation […]

T1 sequence (P12392 21-495): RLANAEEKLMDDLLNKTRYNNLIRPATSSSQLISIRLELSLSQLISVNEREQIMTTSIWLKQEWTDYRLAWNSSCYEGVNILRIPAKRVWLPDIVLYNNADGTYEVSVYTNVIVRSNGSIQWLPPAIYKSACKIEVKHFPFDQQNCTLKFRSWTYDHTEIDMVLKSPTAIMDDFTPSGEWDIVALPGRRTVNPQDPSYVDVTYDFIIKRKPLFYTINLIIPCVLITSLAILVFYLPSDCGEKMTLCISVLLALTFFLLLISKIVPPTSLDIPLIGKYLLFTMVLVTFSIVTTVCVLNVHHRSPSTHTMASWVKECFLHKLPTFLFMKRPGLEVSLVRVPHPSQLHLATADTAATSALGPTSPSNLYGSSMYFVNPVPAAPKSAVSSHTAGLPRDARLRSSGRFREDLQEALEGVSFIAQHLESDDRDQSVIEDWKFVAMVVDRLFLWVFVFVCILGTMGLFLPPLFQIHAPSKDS
T1 sequence (P04757 26-499): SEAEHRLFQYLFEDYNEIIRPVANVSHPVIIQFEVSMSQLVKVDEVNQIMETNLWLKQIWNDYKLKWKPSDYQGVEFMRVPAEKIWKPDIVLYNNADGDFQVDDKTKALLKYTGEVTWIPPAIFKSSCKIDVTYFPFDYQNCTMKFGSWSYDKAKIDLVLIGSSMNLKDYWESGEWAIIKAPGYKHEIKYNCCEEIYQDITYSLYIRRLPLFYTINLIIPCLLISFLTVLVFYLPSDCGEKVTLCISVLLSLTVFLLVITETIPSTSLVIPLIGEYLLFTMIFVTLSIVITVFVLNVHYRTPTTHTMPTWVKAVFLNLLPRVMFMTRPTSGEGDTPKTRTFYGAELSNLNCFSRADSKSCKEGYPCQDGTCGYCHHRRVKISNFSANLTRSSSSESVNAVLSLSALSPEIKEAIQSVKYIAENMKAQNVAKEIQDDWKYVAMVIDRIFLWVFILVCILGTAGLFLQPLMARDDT

For the compound `CN1CCC[C@H]1c1ccc[n+](CCCC#Cc2cc(C#CCCC[n+]3cccc([C@@H]4CCCN4C)c3)cc(C#CCCC[n+]3cccc([C@@H]4CCCN4C)c3)c2)c1` [GZ551B, 1,3,5-tris-{5-[3-(1-methyl-2-S-pyrrolidinyl)pyridinium]-pent-1-ynyl}-benzene tribromide], the “inhibition of ACh response at α3β4 nicotinic receptor subtype (in words)” value was “potently inhibited”.
